# Laboratory results published in US10918687B2, “Kava derived therapeutic compounds and methods of use thereof” (KUALITY HERBCEUTICS LLC, priority 2013, dated 2021).
# Several values for one entry are separate records, joined by “and”; a condition that tells them apart may be missing. Identical values can stand only once.
# Legend:
# [1] = A/J mouse safety upon 17-week continuous exposure of (+)-DHM; assay type: in vivo, A/J mice; conditions: for adverse effects: 0.5 mg/g of diet (at least 10x minimum effective dose)
# Experimental: After one-week acclimation, A/J mice were weighed and randomized into two groups (five mice in the control group and ten mice in (+)-DHM treatment group). Mice in the control group were maintained on the AIN-93 G diet for three weeks and then switched to the AIN-93 M diet until the end of Week 17. Mice in (+)-DHM treatment group were maintained on the same diet as the control group with supplementation of (+)-DHM at a dose of 0.5 mg/g of diet. Food was replenished twice weekly. Food intake was monitored twice a week and mouse bodyweight was monitored once a week. At the end of Week 8, serum samples from each mouse were prepared from blood collected via a facial vein and analyzed for a panel of clinical chemistry analytes. At the end of Week 17, mice were euthanized by CO2 overdosing. Blood was collected with one portion analyzed for hematology and the other portion processed for serum and analyzed for a full panel of clinical chemistry analytes. Individual animal body weights and major organ weights (lung, liver, heart, spleen and kidney) were recorded. Lung, liver, heart, spleen, kidney and pancreas were fixed in 10% neutral-buffered formalin solution.
# [2] = test system: NNK-induced lung tumorigenesis; assay: NNK-induced lung adenoma formation in A/J mice; assay type: in vivo; conditions: for reduction of adenoma multiplicity / reduction of adenoma incidence / adenoma multiplicity: Example 4, Day 119; for adenoma multiplicity: NNK control 13.9±6.9; for minimum effective dose: dietary dose against NNK-induced lung adenoma formation
# Experimental: Female A/J mice, 5-6 weeks of age from the Jackson Laboratory (Bar Harbor, Me.), were handled according to animal welfare protocols approved by IACUC at the University of Minnesota. […] After one-week acclimation, mice were weighed, randomized into different groups and switched to AIN-93G-powdered diet, defined as Day 1. The number of mice in each group was specified in the Result Section. On Day 7 and Day 14, mice in the negative control groups received 0.1 mL physiological saline solution while mice in the other groups received NNK (100 and 67 mg/kg respectively in 0.1 mL of physiological saline solution) via i.p. injection. At the end of Day 21, mice were switched to AIN-93M-powdered diet until the end of the study. Diet consumption was measured twice weekly and bodyweight was monitored weekly. All mice were euthanized with an overdose of carbon dioxide. The lungs were collected and tumors on the surface of the lung were counted.
# Data on lung adenoma multiplicity were reported as mean±SD (n=5-40). […] For Experiment 2, unpaired t-test was used for comparison between NNK control and kava treatment groups. Two-sided p-value≤0.05 was considered statistically significant. Data on DNA adducts were reported as mean±SD (n=3). For the time-course study, unpaired […] was used for comparisons between NNK control and kava treatment groups. Two-sided p-value≤0.05 was considered statistically significant: *p<0.05, **p<0.01, and ***p<0.001. For the 24-h time point study, one-way ANOVA was used to compare means.
# After one-week acclimation, mice were weighed, randomized into eight groups and switched to the AIN-93 G diet on a date defined as Day 1. The number of mice in each group is specified in the Results Section (FIG. 36). Mice were fed diets supplemented with different compounds at the dose specified in the Results Section during Day 1-Day 14. On Day 7 and Day 14, mice in the negative control group received 0.1 mL of saline solution while mice in the other groups received NNK (100 and 67 mg/kg, respectively, in 0.1 mL of saline solution) via i.p. injection. At the end of Day 21, mice were switched to the AIN-93 M diet until the end of the study. The diet was replenished twice weekly. The diet consumption was measured twice weekly and the bodyweight was monitored weekly. This study was terminated at the end of Day 119. All mice were euthanized with CO2 overdosing.
# [3] = 0.5 mg/g of diet, Week 17, data not shown
SMILES,adverse effects ([1]; 17 weeks),"food intake vs control ([1]; 0.5 mg/g of diet, 17 weeks)","weekly bodyweight vs control ([1]; 0.5 mg/g of diet, 17 weeks)","full-panel hematology vs control ([1]; 0.5 mg/g of diet, Week 17)","histopathological examination of liver, lung, heart, kidney, spleen and pancreas vs control [1, 3]","serum osmolality and anion gap vs control [1, 3]","final bodyweight and relative weights of five organs vs control ([1]; 0.5 mg/g of diet, Week 17, except for the lung tissues)","relative lung weight vs control ([1]; 0.5 mg/g of diet, Week 17, excluding one control mouse with lung hemorrhage (p=0.10))","serum clinical chemistry (ALP, ALT, AST, BUN, albumin, total bilirubin, CK, glucose, cholesterol, amylase) vs control ([1]; 0.5 mg/g of diet, end of Week 8)","serum clinical chemistry vs control ([1]; 0.5 mg/g of diet, end of Week 17)",reduction of adenoma multiplicity ([2]; 0.05 mg/g of diet (50 ppm) Day 1-Day 14),reduction of adenoma incidence ([2]; 0.05 mg/g of diet Day 1-Day 14) [%],adenoma multiplicity ([2]; 0.05 mg/g of diet Day 1-Day 14) [lung adenoma/mouse],reduction of adenoma incidence ([2]; 0.5 mg/g of diet Day 1-Day 14) [%],reduction of adenoma multiplicity ([2]; 0.5 mg/g of diet Day 1-Day 14) [%],adenoma multiplicity ([2]; 0.5 mg/g of diet Day 1-Day 14) [lung adenoma/mouse],minimum effective dose [2]
"COC1=CC(=O)O[C@@H](CCc2ccc3c(c2)OCO3)C1 [(+)-DHM, (+)-dihydromethysticin]",did not present with any adverse effects,similar,none of the differences were statistically significant,None of these parameters were significantly different,no significant differences,no differences,not significantly different,no significant differences,No significant differences,no significant differences,97% and 97.1%,40,0.6±0.5,40,97.1,0.6±0.5,lower than 0.05 mg/g
"COC1=CC(=O)O[C@@H](CCc2ccc3c(c2)OCO3)C1 [DHM, dihydromethysticin]",no adverse effects,–,–,–,–,–,–,–,–,–,–,–,–,–,–,–,lower than 0.05 mg/g
